Here are results for three compounds from patent publication US7109329B2, “Neurologically active compounds and compounds with multiple activities” (priority 1988, dated 2006).

A short description of data set [1]: Treatment of spinal cord injured rats and cats with alpha-adrenoceptor agonists. The format is in vivo. How it is done:
The animals are treated with a guanidino compound, e.g., guanphylline or aminoguanphylline, twice daily (1 mg/kg). Approximately 10, 14 and 20 days after treatment with, e.g., guanphylline or aminoguanphylline is commenced, these animals can also be treated with a serotonergic (“5-HT”) receptor agonist; such as quipazine (1–2 mg/kg). Such serotonergic compounds can accelerate the recovery period, i.e., shorten the period after which time the animals become mobile. The animals should then continue to be treated systemically with the guanidino compound twice daily for six to eight weeks, or until functional recovery has been achieved.
Many rats and cats have been treated with several alpha-adrenoceptor agonists in order to ascertain which drug has the least side effects and reduces the time period for recovery.

A short description of data set [2]: Spinal cord transection in rats: recovery of hind limb function and reflexes under treatment. It counts as in vivo, rat. On the procedure: The spinal cord of a group of rats was completely transected. After surgery, the rats were treated with guanabenz.
The rats presented with a condition of bloody eyes and nose for a period of 2 to 5 days after the transection. During the first two-weeks, proper plantar placement, weight bearing on the hind limbs and/or coordinated walking was not present.
In a further group of six rats the spinal cord was transected in accordance with the above Comparative Examples. After surgery and cleaning and mechanical treatment of the wounds in the same fashion, an intraperitoneal injection of 7-(guanidino-acetyl-theophylline (“C”) was administered at a dose of 5.0 mg/kg 24 hours post surgery. Within a 7 to 9 day period, the rats engaged in walking movements of the hind limbs coordinated with those of the front limbs and the hind limbs, including proper plantar placement and full weight bearing on the hind limbs.
Within 36 hours after the spinal cord transection, i.e., only 12 hours after initial administration of Compound C, the initial bloody eyes and nose condition had abated. […] Further the animals were alert and continued to eat in substantially normal quantities.
Starting 24 hours post-transection, immediately after each intraperitoneal administration of Compound C, reflexes such as the tail-flick and cross-extension would return, within 12 minutes post injection. […] Within 8 to 11 days the response became sustained, and was accompanied by long-term therapeutic restoration of coordinated movements, plantar placements and weight-bearing by the hind limbs.

Data set [3] can be described thus: Blood pressure after administration, cat. It counts as in vivo.
The nature of data set [4]: Spasticity in previously untreated spinal cord transected rats (Working Example 2). The format is in vivo, rat. The following applies: 4.0 mg/kg BID intraperitoneally for 7 days. From the text:
It was noted that some of the untreated rats in Comparative Example A developed severe spasticity three weeks after transection.

Data set [5] can be described thus: Blood pressure after administration, sheep. It counts as in vivo.
A short description of data set [6]: Core temperature of treated rats in a room at minus 30° C. It counts as in vivo, rat. Particulars: four rats, 4 mg intraperitoneally, placed about 30 minutes after injection. On the procedure: (room temperature). […] (plus or minus 0.5° C.). The core temperatures of the four treated rats, as well as that of two control rats who received only the dextrose solution, were continuously monitored.

The nature of data set [7]: Anesthesia in rats judged by reflexes and wakefulness.
Data set [8] is described as follows: Brain and core temperature of treated rats in a room at 4°–5°. It counts as in vivo, Sprague-Dawley rats. The following applies: 12 mg/kg IP. How it is done:
All sixteen rats were placed in a temperature-controlled room maintained at 4°–5° d. immediately after injection.

Data set [9] is described as follows: Formation of scar tissue at the trauma site. The format is in vivo. From the text: It is believed that these mixed agonists interfere with triple helix formation in the synthesis of collagen protein, thus preventing or reducing the formation of hard scar tissue at the trauma site.
The purpose of liquid nitrogen is to reduce the structural integrity of the collagen laden, glial scar tissue, by freezing and defrosting. Collagenase then initiates a debridgement of the scar without attacking the nervous and osseous tissue. If required, streptokinase, or alteplase, both plasminogen activators can also be used to bring about a complete debridgement. In addition to 3-amino-propionitrile (a latherogen), 5-fluorodeoxyuridine and dehydroproline can be used to arrest further glial and fibroblastic invasion of the scar region, respectively.

A short description of data set [10]: Electrical tail stimulation, vocalization threshold (anesthesia) in rats. The format is in vivo, rat. How it is done: A fifth rat was treated with merely an equal amount of the dextrose solution without guanabenz acetate. The rats were subjected to an electrical tail stimulation, by electrodes attached to their tails, to determine the point of positive (threshold) vocalization.
The normal vocalization threshold, and the point at which the control rat vocalized was approximately 7 volts. […] To bring the rats out of anesthesia, the rats were then injected with 40 mgs. of aminophylline, also in 1 ml of a 5% aqueous dextrose solution. […] The normal threshold for vocalization was reestablished, as there was no vocalization at 6 volts following recovery from anesthesia.
The rats were maintained under anaesthesia for a period of 50 minutes before injection of the aminophylline.

The procedure of data set [11]: Room temperature was 21.5° C.
The core temperatures of the rats were allowed to fall to approximately 30° C., after about 15 minutes. At that time, the rats were placed in a temperature controlled room maintained at 42° C., together with 2 control rats treated only with the dextrose solution.
The core temperatures of the rats were allowed to fall to approximately 30° C. At that time, the rats were placed in a temperature controlled room maintained at 42° C., together with two control rats treated only with the dextrose solution.

The nature of data set [12]: Intravenous anesthesia of a 70 kg mammal. The format is in vivo. On the procedure:
Thereafter, an intravenous injection containing 20 mg of aminophylline is administered over a period of five minutes. The large mammal is fully awakened within about 20 minutes, appearing alert and refreshed.
The period of time required to fully reverse the anesthesia can be increased or decreased by proportionally changing the amount of the antagonist. After metabolism of guanabenz, the mammal will spontaneously awaken, within about three to six hours after the I.V. drip is discontinued.

The nature of data set [13]: Spinal cord trauma (500 g-cm weight drop at T4) in cats: urinary bladder function, micturition. It counts as in vivo, cat. On the procedure:
A cat was anesthetized using intravenous pentobarbital (30 mg/kg) after which its arterial blood pressure was continuously monitored for at least two hours. After recording stable arterial blood pressure, a dorsal laminectomy was performed in the thoracic region of the cat from T3 to T5; after restoration of blood pressure, the cat was traumatized by means of a twenty gram weight being dropped from a height of twenty-five centimeters (500 g-cm force) on the exposed dura of the spinal cord at the fourth thoracic segment.
Ten cats were spinally traumatized in accordance with the procedure set forth above in Comparative Example A. Five of these spinal cats were treated with Compound C commencing three hours after trauma and five of the cats were treated with guanabenz beginning at the same time.
Spinalized cats required eight weeks of treatment with guanabenz before regaining controlled micturition. Cats treated with Compound C, required only three to five weeks of treatment to achieve the same results.

The mark [14] stands for this setting: 5.0 mg/kg intraperitoneal 24 hours post surgery.
The mark [15] stands for this setting: 4 mg I.P., room temperature 21.5° C.
The mark [16] stands for this setting: Sprague-Dawley rats, 4 mg, tolazoline 4 mg intravenously about twenty minutes before.

For `Cn1c(=O)c2c(ncn2C(=O)CNC(=N)N)n(C)c1=O` [7-(guanidinoacetyl)-theophylline], the “efficacy in treated rats and cats” value in [1] is given as “found efficacious”.

As for `Cn1c(=O)c2c(ncn2CC(=O)NC(=N)N)n(C)c1=O` [C, Guanidino-7-Acetyltheophylline], in data set [2] (setting [14]), the “time after initial administration until bloody eyes and nose condition had abated” value is 12 h; the “time after spinal cord transection until bloody eyes and nose condition had abated” value is not above 36 h. Besides, in data set [2] (after each intraperitoneal administration, starting 24 hours post-transection), the “time post injection until return of reflexes (tail-flick, cross-extension)” value is not above 12 min. For the same compound, the “period until walking movements of the hind limbs coordinated with the front limbs, proper plantar placement and full weight bearing” value in data set [2] (six spinal transected rats, 5.0 mg/kg intraperitoneal from 24 hours post surgery) is 7 to 9 days. For the same compound, the “signs of sedation or lethargy during the course of treatment” value in data set [2] (spinal transected rats, 5.0 mg/kg intraperitoneal) is on record as “did not exhibit any signs of sedation or lethargy”. Moreover, in data set [2] (spinal transected rats, intraperitoneal), the “time until the response became sustained with long-term restoration of coordinated movements” value is listed as 8 to 11 days. Moreover, in data set [3], the “blood pressure immediately after administration” value is on record as “slight increase” and the “time until blood pressure returned to basal level” value is not above 10 min. In data set [4] (three spastic control rats three weeks after transection), the “time until marked decrease in spasticity” value is not above 4 days. Moreover, the “time until complete elimination of spasticity” value in data set [4] (three spastic control rats) came out at 7 days. In data set [5], the “blood pressure immediately after administration” value is “slight increase” and the “time until blood pressure returned to basal level” value is not above 10 min.

On to `N=C(N)N/N=C/c1c(Cl)cccc1Cl` [guanabenz], for which the “core temperature approximately 15 minutes after placement in the cold room” value in data set [6] was approximately 16 °C. The “muscle mass of hind limbs” value in [2] (spinal transected rats under I.P. treatment) is given as “some, but not significant loss of muscle mass”. Further, the “duration of sedation following each administration” value in data set [2] (spinal transected rats, 0.65 mg/kg I.P. twice per day from 72 hours after the lesion) was 2 to 4 h. Also, the “time of treatment until proper plantar placement, weight bearing on the hind limbs and coordinated walking movements” value in [2] (spinal transected rats, 0.65 mg/kg I.P. twice per day, majority of the rats) is on record as “third week”. Besides, in data set [7] (setting [15]), the “anesthetic state of the treated rats” value is “anesthetized”. Moreover, the “I.P. amount sufficient to initially place the rats in an anesthetized condition” value in [7] (laboratory rats, I.P.) is recorded as 12 mg per kilogram of body weight. In addition, the “behavior after the experiment” value in data set [8] is listed as “resume normal behavior”. Besides, in data set [8] (ultimately), the “core temperature lower than the brain temperature by” value stood at 10 °C. The “mean brain temperature after 45 minutes” value in data set [8] (8 rats, original mean 37° C.) is 27 °C. In [9], the “effect on formation of the scar” value is reported as “interfere with formation of the scar”. In [10] (setting [16]), the “duration of anesthesia without further administration” value is “four” and the time until anesthetized result was “five”. Besides, in data set [10] (rats 310–350 g, 4 mg intraperitoneally, beginning seven minutes after injection, normal threshold 7 volts), the “vocalization threshold on electrical tail stimulation (failed to vocalize)” value was more than 10 volts. Also, in data set [10] (rats, 4 mg intraperitoneally, thereafter (profoundly anesthetized)), the “vocalization threshold on electrical tail stimulation (no vocalization response)” value is more than 40 Volts. In [11] (setting [15]), the mean intraperitoneal temperature worked out at 31.5 °C; the “temperatures of the liver and the kidneys” value is “about 33.5 °C”. The “core temperature (colonic measurement) after drop” value in data set [11] (eight rats each, 4 mg I.P. in 5% dextrose, room temperature 21.5° C., normal value 36.5° C.) worked out at 22.5 °C. Moreover, the “core temperature after drop” value in data set [11] (four rats, 4 mg intraperitoneally, room temperature 21° C., before cold room) worked out at 21 °C. In addition, the “total amount in the initial single dose for anesthetic and hypothermic effect” value in [12] (60 to 75 kg mammal, intravenous injection) is on record as not above 0.5 mg/kg. Further, the “reaction to noxious stimulation and corneal reflex” value in data set [12] (70 kg mammal, 6 mg intravenous) is “does not overtly react to the noxious stimulation of pin-pricks”. The “time after injection until profound anesthesia” value in data set [12] (70 kg mammal, 6 mg intravenous over three minutes) is “five”. Further, the “additional duration of profound anesthesia after the drip” value in data set [12] (70 kg mammal, drip 0.1 mg/ml at 1 ml/min for 30 minutes from about 120 minutes after the initial injection) was “about two”. For the same compound, the “time to spontaneous awakening after the I.V. drip is discontinued” value in data set [12] (large mammal, after metabolism of guanabenz) is on record as “three to six”. Also, the “urinary bladder function at urodynamic examination” value in data set [13] (spinal cats, 0.65 mg/kg bid from three hours after trauma, guanabenz four to five weeks after treatment began, Compound C after seven to twenty-one days) was “tight urinary sphincter and dyssinergia”. In addition, the “treatment required before regaining controlled micturition” value in [13] (spinalized cats) is given as “eight”.
